Measurements published in PMC8346996, “Antiradical Properties of N-Oxide Surfactants—Two in One” (International Journal of Molecular Sciences, 2021).
Values after ≈ are worked out from the molar mass of the structure shown. Read-outs that look alike come from different tables or passages of the source. Marks after values point to notes of the source that are not given here.

Key:
[1] = Hydrodynamic radius of micelles by dynamic light scattering (DLS); assay type: physicochemical; conditions: 298 K, surfactant at 100 x CMC
Description: The hydrodynamic diameter for CnPDA was determined by the DLS method. The measurements were performed using a Nano Series Zetasizer from Malvern Instruments (UK) with a detection angle of 173°, equipped with a He−Ne laser (632.8 nm) and an ALV 5000 multibit multitau autocorrelator. Before the measurements, the samples were filtered through a filter (with a pore size of 0.2 μm) directly into the optical cell to remove any impurities. All of the DLS measurements were performed at 298 ± 0.1 K and at a surfactant concentration a hundred times higher than the critical micelle concentration (CMC). Each value was obtained as the average of three runs with at least 10 measurements. The DTS software (Nano) was used to evaluate the data.

[2] = Radical scavenging monitored by EPR spectroscopy, GO•; conditions: after 60 min of reaction; C/CMC = 100
Description: (§1) We began with an attempt to determine if the N-oxide surfactants can participate in the radical scavenging process when micelles are well-formed. Thus, the reaction mixtures containing a surfactant at C/CMC = 100, which is a typical concentration found in formulations, and GO• or DPPH• at 2 mM were prepared along with the control samples and monitored over time (solutions of DPPH• and GO• without surfactants).
(§2) The scavenging capacity of the surfactants was judged quantitatively by measuring the percentage of remaining GO• and DPPH• after a fixed reaction time. The relative concentration of GO• and DPPH• was calculated from Equation (1):(1) remaining radical%=It/I0×100% where I0 and It correspond to the EPR signal integral intensity of a radical in the absence and presence of the N-oxide surfactants after a fixed time, respectively.
(§3) The antiradical properties were studied by EPR using a Bruker ELEXYS E500 spectrometer equipped with an NMR gaussmeter and frequency counter. A microwave power of 10 mW, a modulation frequency of 100 kHz, a modulation amplitude of 1 G, a time constant of 82 ms, and a conversion time of 164 ms were adopted. The antiradical properties were evaluated against two model radicals: 2,2-diphenyl-1-picrylhydrazyl (DPPH•) and galvinoxyl (GO•). […]

[3] = Radical scavenging monitored by EPR spectroscopy, DPPH•; conditions: after 60 min of reaction; C/CMC = 100
Description: as §1, §2, §3

[4] = DPPH• scavenging kinetics by UV-vis, pseudo-first-order conditions; conditions: for second-order rate constant k2 for the reaction with DPPH•: ethanol, 298 K, deaerated, DPPH• 2.2 × 10^−4 M, surfactant 0.012-0.12 M
Description: After confirming that the absorption maximum at 517 nm of DPPH• is outside the surfactant’s absorption range, the rate of the DPPH•-scavenging reaction of the N-oxides was measured by monitoring the decrease in absorbance of this maximum. To ensure that the decay of DPPH• obeyed pseudo-first-order kinetics, the concentration of surfactants was at least a 54-fold excess of the DPPH• concentration. As explained in SI, the calculated pseudo-first-order rate constants, kobs, increased linearly with the concentration of Cn(DAPANO)2 and CnPDA (shown in SI). The second-order rate constants k2 for the reaction between the N-oxides and DPPH• were determined from the slopes of the linear plots of kobs vs. the concentration of the surfactants and are given in Figure 6.
The measurements were done under deaerated conditions at 298 K in ethanol solutions (2 mL in a 10 mm quartz cuvette) containing DPPH^• (C = 2.2 × 10^−4 M) and a surfactant at each of five different concentrations, namely C1 = 0.12 M, C2 = 0.09 M, C3 = 0.06 M, C4 = 0.03 M, and C5 = 0.012 M. UV−vis spectral changes associated with the undergoing reaction were monitored at 516 nm, using a Varian Cary 50Conc UV−visible Spectrophotometer. The following equations of the calibration curve were used to calculate DPPH^• concentrations in the reaction system: Abs = 4.0189 × C[mM] + 0.00813 (R^2 = 0.9998). The rate of DPPH^• scavenging reaction was determined using pseudo-first-order kinetics (the concentration of CnPDA or Cn(DAPANO)2 was maintained at more than 54-fold excess of the radical concentration); further details are given as Supporting Information.

[5] = MTT cell viability assay, HaCaT; assay type: cell-based, human; conditions: human, HaCaT cells (immortalized human keratinocytes), evaluated for CMC
Description: (§4) HaCaT (immortalized human keratinocytes from histologically normal skin) cell line was obtained from the CLS Cell Lines Service GmbH (Eppelheim, Germany). HGFs (human gingival fibroblasts) derive from primary cell culture. The cells were isolated according to the procedure described by Saczko et al. and patented by Saczko et al.. Cells were grown in plastic cell culture flasks in Dulbecco’s Modified Eagle’s Medium, supplemented with fetal bovine serum (FBS, Lonza, Morrisville, NC, USA), with 100 IU/mL penicillin, 50 mg streptomycin, and 125 μg amphotericin B (Sigma). The cells were maintained in a humidified atmosphere at 37 °C and 5% CO2. The cells were regularly maintained by systematic passaging. For experimental purposes, the cells were removed by trypsinization (0.25% Trypsin-EDTA, Sigma).
(§5) MTT (Sigma) test was used to determine the viability of HaCaT and HGFs cells. The MTT assay was used to test mitochondrial metabolic functioning. Cells were seeded on flat bottom 96-well tissue culture plates at a density of 10^4 cells/well and allowed to grow in a CO2 incubator at 37 °C overnight. In the case of these studies, the culture medium was removed, surfactant solutions were added, and the cells were exposed for 24 and 48 h to compounds at doses ranging from 50 to 2000 μg/mL. After incubation, MTT assay was applied according to the manufacturer protocol. The absorbance was measured at 570 nm using a multiwell plate reader (EnSpire Multimode Reader, Perkin Elmer). Each experiment was performed in a few independent repetitions. Mean values and standard deviations of all results were calculated. The final results were expressed as the percentage of mitochondrial function relative to untreated control cells.

[6] = tested on: normal human keratinocytes (HaCaT); assay: MTT cell viability assay, HaCaT; assay type: cell-based; conditions: Homo sapiens, HaCaT, MTT
Description: as §4, §5

[7] = MTT cell viability assay, HGFs; assay type: cell-based, human; conditions: human, primary human gingival fibroblasts (HGFs), evaluated for CMC; for viability at 24 h: read-out: Viability 24 h HGF’s; for viability at 48 h: read-out: Viability 48 h HGF’s
Description: as §4, §5

[8] = tested on: primary fibroblasts (HGFs); assay: MTT cell viability assay, HGFs; assay type: cell-based, human; conditions: Homo sapiens, Fibroblast, MTT
Description: as §4, §5

[9] = parameters: method as in PMID 23098238; conditions: cited from earlier work
[10] = parameters: method as in PMID 23098238; conditions: cited from earlier work; remark: listed apart in the source
[11] = 24 h incubation, read-out: IC50 HaCaT 24 h
[12] = 48 h incubation, read-out: IC50 HaCaT 48 h
[13] = 24 h incubation, read-out: IC50 HGFs 24 h
[14] = 48 h incubation, read-out: IC50 HGFs 48 h

Row | SMILES | RH DLS [1] [nm] | reduced the number of GO• by [2] [%] | reduced the number of DPPH• by [3] [%] | second-order rate constant k2 for the reaction with DPPH• [4] [M⁻¹ s⁻¹] | viability at 24 h [5] [%] | viability at 48 h [5] [%] | IC50 [6, 11] [µg/mL] | IC50 [6, 12] [µg/mL] | viability at 24 h [7] [%] | viability at 48 h [7] [%] | IC50 [8, 13] [µg/mL] | IC50 [8, 14] [µg/mL] | k2 higher in comparison with the CnPDA homolog ([4]; reaction with DPPH•) [%] | CMC [9] | RH DLS [10]
1 | CCCCCCCCCCCC(=O)NCCC[N+](C)(C)[O-] [C12PDA] | 1.96 | 59 | 24 | 0.000905 | 89.4 | 116 | 31 (≈ 103 µM) | 18.8 (≈ 62.6 µM) | 55.5 | 44.8 | 51.9 (≈ 173 µM) | 49.8 (≈ 166 µM) |  |  | 
2 | CCCCCCCCCCCC(=O)N(CCC[N+](C)(C)[O-])CCC[N+](C)(C)[O-] [C12(DAPANO)2] |  | 88 | 86 | 0.00108 | 9.2 | 16.4 | 95 (≈ 237 µM) | 94 (≈ 234 µM) | 17.1 | 10.8 | 27.9 (≈ 69.5 µM) | 1.2 (≈ 2.99 µM) | 19 | 5.5·10^−3 a M | 2.04 ^a nm
